One series has as its target Bile salt export pump (Homo sapiens, UniProt O95342). As to the kind of experiment: Inhibition of human BSEP overexpressed in Sf9 cell membrane vesicles assessed as uptake of [3H]-taurocholate in presence of ATP measured after 15 to 20 mins by membrane vesicle transport assay. Type of series: ADME, cell-based.
Series [1] concerns the target ATP-binding cassette sub-family C member 2 (Homo sapiens, UniProt Q92887). As to the kind of experiment: Inhibition of human MRP2 overexpressed in Sf9 cell membrane vesicles assessed as uptake of [3H]-estradiol-17beta-D-glucuronide in presence of ATP and GSH measured after 20 mins by membrane vesicle transport assay.
Series [2] addresses ATP-binding cassette sub-family C member 3 (Homo sapiens, UniProt O15438). As to the kind of experiment: Inhibition of human MRP3 overexpressed in Sf9 insect cell membrane vesicles assessed as uptake of [3H]-estradiol-17beta-D-glucuronide in presence of ATP and GSH measured after 10 mins by membrane vesicle transport assay. The class given is ADME, cell-based.
For series [3], the target named is T1, ATP-binding cassette sub-family C member 4 (Homo sapiens, UniProt O15439).
T1 sequence (O15439 whole entry): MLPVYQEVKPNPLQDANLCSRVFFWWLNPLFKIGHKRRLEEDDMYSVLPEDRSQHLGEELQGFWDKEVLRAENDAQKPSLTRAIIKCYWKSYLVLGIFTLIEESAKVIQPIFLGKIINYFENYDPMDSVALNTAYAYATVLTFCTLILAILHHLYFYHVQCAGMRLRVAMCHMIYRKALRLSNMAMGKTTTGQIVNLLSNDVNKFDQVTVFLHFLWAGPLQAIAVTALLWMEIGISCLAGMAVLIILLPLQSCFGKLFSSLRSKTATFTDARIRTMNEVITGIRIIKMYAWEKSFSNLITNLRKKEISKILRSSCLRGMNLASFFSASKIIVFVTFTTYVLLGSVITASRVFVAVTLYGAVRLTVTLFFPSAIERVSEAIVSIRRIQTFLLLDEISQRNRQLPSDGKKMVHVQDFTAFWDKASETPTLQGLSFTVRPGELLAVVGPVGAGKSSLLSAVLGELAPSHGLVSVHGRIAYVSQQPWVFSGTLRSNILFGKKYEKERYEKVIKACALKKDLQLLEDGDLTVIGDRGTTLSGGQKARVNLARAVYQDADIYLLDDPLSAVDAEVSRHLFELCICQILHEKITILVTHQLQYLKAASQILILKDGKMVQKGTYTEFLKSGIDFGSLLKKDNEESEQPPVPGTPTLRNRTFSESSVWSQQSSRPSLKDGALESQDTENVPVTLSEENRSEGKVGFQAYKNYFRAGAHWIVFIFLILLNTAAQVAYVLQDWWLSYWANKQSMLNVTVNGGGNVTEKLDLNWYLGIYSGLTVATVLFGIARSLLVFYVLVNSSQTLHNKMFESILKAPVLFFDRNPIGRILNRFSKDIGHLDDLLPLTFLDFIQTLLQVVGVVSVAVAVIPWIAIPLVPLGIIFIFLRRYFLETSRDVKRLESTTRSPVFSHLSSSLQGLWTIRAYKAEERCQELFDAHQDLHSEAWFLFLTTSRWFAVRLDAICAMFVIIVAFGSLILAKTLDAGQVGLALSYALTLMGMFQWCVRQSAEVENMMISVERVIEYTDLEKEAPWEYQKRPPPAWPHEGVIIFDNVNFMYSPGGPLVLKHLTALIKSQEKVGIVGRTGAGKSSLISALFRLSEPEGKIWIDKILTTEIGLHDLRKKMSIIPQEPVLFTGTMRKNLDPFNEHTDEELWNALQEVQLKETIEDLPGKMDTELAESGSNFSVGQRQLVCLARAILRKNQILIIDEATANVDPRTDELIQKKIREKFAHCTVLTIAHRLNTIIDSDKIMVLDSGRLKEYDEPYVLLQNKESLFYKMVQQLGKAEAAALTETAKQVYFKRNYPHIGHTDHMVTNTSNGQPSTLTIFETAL
As to the kind of experiment: Inhibition of human MRP4 overexpressed in Sf9 cell membrane vesicles assessed as uptake of [3H]-estradiol-17beta-D-glucuronide in presence of ATP and GSH measured after 20 mins by membrane vesicle transport assay. The class given is ADME, cell-based.

Series [4] is described as follows: AUC in human at 0.35 mg, po QD after 24 hrs. Type of series: ADME, organism-based. The note with it: in vivo. The arrangement: time < 24 hr, dose 0.35 mg, route oral.
Series [5] can be described thus: Drug concentration at steady state in human at 0.35 mg, po QD after 24 hrs. Conditions: in vivo, read-out: Css. The class given is ADME, organism-based.
Series [6] is described as follows: Ratio of drug concentration at steady state in human at 0.35 mg, po QD after 24 hrs to IC50 for human BSEP overexpressed in Sf9 insect cells. Type of series: ADME, organism-based. The note with it: in vivo.
A short description of series [7]: AUC in human at 1 to 16 mg or 4 to 8 mg, po QD extended-release tablets after 24 hrs. The class given is ADME, organism-based. Conditions: in vivo.
Series [8] can be described thus: Ratio of drug concentration at steady state in human at 1 to 16 mg or 4 to 8 mg, po QD extended-release tablets after 24 hrs to IC50 for human MRP4 overexpressed in Sf9 insect cells. The class given is ADME, organism-based. Conditions: in vivo.
A further series relates to Homo sapiens. As to the kind of experiment: Drug concentration at steady state in human at 1 to 16 mg or 4 to 8 mg, po QD extended-release tablets after 24 hrs. Conditions: in vivo. Type of series: ADME, organism-based.
Series [9] is described as follows: Ratio of drug concentration at steady state in human at 1 to 16 mg or 4 to 8 mg, po QD extended-release tablets after 24 hrs to IC50 for human BSEP overexpressed in Sf9 insect cells. Type of series: ADME, organism-based. The note with it: in vivo.
The nature of series [10]: AUC in human at 400 mg, po BID after 12 hrs. The class given is ADME, organism-based. The arrangement: time < 12 hr, dose 400 mg, route oral. Conditions: in vivo.
A short description of series [11]: Drug concentration at steady state in human at 400 mg, po BID after 12 hrs. Type of series: ADME, organism-based. The note with it: in vivo, read-out: Css.
Series [12] can be described thus: Ratio of drug concentration at steady state in human at 400 mg, po BID after 12 hrs to IC50 for human BSEP overexpressed in Sf9 insect cells. The class given is ADME, organism-based. Conditions: in vivo.
The nature of series [13]: AUC in alopecia patient at 1 mg, po QD after 24 hrs. Type of series: ADME, organism-based. Also noted: time < 24 hr, dose 1 mg, route oral. Conditions: human, in vivo.
A short description of series [14]: AUC in benign prostate hyperplasia patient at 5 mg, po QD after 24 hrs. Type of series: ADME, organism-based. The arrangement: time < 24 hr, dose 5 mg, route oral. Conditions: male, human, in vivo.
A short description of series [15]: Drug concentration at steady state in alopecia patient at 1 mg, po QD after 24 hrs. Type of series: ADME, organism-based. Conditions: human, in vivo, read-out: Css.
A short description of series [16]: Drug concentration at steady state in benign prostate hyperplasia patient at 5 mg, po QD after 24 hrs. Type of series: ADME, organism-based. The note with it: male, human, in vivo, read-out: Css.
Series [17] can be described thus: Ratio of drug concentration at steady state in human in alopecia patient at 1 mg, po QD after 24 hrs to IC50 for human BSEP overexpressed in Sf9 insect cells. Type of series: ADME, organism-based. Conditions: in vivo.
Series [18] in a line: Ratio of drug concentration at steady state in human in benign prostate hyperplasia patient at 5 mg, po QD after 24 hrs to IC50 for human BSEP overexpressed in Sf9 insect cells. Conditions: in vivo. Type of series: ADME, organism-based.
Series [19] is described as follows: Ratio of drug concentration at steady state in human in alopecia patient at 1 mg, po QD after 24 hrs to IC50 for human MRP4 overexpressed in Sf9 insect cells. The class given is ADME, organism-based. Conditions: in vivo.
Series [20] can be described thus: Ratio of drug concentration at steady state in human in benign prostate hyperplasia patient at 5 mg, po QD after 24 hrs to IC50 for human MRP4 overexpressed in Sf9 insect cells. Conditions: in vivo. Type of series: ADME, organism-based.

Bile salt export pump, sequence (O95342 whole entry): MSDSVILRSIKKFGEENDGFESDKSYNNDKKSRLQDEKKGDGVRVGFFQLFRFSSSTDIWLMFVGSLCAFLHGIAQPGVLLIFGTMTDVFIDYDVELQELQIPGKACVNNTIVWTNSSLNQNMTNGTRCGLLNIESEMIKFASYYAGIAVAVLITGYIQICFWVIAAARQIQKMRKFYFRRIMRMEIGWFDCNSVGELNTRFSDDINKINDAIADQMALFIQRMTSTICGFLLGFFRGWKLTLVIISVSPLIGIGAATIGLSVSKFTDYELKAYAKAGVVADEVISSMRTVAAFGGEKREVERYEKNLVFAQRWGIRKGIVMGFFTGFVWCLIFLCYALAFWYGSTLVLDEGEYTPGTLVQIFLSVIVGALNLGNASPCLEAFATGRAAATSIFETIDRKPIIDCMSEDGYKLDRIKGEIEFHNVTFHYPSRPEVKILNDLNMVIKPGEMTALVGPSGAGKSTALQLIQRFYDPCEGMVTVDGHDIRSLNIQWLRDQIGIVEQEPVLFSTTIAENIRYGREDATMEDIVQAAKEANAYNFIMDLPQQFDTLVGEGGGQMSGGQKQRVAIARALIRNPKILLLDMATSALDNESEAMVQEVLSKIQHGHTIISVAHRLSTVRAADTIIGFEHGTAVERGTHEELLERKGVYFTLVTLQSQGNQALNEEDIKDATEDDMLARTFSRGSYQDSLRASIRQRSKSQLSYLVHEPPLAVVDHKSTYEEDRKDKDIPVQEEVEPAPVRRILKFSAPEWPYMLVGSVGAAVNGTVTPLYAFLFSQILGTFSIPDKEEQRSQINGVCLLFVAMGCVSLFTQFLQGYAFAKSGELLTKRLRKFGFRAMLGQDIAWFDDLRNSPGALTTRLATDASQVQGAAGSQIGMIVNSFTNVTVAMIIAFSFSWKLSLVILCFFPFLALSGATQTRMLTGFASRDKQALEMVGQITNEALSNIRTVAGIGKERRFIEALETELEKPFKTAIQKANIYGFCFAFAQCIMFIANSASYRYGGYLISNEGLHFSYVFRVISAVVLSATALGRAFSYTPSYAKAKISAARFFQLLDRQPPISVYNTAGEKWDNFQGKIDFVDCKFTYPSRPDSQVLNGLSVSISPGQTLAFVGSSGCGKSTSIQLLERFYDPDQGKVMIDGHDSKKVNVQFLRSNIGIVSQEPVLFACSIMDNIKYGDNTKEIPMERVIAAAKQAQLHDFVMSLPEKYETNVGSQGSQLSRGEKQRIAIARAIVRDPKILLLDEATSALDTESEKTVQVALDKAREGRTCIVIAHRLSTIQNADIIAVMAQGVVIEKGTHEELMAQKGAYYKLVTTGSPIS
ATP-binding cassette sub-family C member 2, sequence (Q92887 whole entry): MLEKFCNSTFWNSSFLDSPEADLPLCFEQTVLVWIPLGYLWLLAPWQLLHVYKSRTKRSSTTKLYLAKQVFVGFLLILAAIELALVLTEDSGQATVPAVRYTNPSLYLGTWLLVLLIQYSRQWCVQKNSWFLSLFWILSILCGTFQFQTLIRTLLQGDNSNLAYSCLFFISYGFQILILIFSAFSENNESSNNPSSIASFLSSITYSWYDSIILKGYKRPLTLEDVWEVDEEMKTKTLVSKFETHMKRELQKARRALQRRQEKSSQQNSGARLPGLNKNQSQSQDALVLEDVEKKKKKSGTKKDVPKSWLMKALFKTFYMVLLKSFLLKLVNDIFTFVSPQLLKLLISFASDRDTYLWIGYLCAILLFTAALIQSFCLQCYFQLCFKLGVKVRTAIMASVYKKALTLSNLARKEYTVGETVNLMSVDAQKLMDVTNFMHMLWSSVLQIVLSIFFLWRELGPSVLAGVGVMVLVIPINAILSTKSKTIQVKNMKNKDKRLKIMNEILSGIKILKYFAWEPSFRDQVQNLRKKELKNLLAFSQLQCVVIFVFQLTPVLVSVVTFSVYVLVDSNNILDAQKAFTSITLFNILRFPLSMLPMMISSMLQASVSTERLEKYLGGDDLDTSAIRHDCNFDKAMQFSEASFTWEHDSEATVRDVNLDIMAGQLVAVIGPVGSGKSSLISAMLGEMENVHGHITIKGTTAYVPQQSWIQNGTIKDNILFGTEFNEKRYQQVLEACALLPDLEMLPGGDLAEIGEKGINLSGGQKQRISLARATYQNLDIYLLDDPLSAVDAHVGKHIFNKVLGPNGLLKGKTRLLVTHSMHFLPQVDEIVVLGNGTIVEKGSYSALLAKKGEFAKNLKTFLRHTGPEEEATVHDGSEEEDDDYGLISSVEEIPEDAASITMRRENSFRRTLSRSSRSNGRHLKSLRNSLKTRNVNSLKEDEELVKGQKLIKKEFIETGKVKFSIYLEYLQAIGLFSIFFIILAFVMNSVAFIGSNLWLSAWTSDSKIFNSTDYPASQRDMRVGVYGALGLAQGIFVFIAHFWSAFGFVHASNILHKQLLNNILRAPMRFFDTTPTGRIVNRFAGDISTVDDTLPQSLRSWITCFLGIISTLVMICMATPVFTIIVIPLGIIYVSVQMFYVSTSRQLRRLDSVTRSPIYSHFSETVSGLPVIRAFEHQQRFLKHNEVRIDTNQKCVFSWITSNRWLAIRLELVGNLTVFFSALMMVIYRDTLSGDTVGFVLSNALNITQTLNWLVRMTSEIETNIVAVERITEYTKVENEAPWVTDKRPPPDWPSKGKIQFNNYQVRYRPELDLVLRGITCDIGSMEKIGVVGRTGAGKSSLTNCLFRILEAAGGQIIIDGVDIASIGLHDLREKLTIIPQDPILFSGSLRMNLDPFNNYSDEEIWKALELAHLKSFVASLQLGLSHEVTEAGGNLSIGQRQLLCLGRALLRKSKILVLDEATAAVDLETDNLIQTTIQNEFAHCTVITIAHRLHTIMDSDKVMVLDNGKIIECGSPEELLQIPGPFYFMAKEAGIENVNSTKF
ATP-binding cassette sub-family C member 3, sequence (O15438 whole entry): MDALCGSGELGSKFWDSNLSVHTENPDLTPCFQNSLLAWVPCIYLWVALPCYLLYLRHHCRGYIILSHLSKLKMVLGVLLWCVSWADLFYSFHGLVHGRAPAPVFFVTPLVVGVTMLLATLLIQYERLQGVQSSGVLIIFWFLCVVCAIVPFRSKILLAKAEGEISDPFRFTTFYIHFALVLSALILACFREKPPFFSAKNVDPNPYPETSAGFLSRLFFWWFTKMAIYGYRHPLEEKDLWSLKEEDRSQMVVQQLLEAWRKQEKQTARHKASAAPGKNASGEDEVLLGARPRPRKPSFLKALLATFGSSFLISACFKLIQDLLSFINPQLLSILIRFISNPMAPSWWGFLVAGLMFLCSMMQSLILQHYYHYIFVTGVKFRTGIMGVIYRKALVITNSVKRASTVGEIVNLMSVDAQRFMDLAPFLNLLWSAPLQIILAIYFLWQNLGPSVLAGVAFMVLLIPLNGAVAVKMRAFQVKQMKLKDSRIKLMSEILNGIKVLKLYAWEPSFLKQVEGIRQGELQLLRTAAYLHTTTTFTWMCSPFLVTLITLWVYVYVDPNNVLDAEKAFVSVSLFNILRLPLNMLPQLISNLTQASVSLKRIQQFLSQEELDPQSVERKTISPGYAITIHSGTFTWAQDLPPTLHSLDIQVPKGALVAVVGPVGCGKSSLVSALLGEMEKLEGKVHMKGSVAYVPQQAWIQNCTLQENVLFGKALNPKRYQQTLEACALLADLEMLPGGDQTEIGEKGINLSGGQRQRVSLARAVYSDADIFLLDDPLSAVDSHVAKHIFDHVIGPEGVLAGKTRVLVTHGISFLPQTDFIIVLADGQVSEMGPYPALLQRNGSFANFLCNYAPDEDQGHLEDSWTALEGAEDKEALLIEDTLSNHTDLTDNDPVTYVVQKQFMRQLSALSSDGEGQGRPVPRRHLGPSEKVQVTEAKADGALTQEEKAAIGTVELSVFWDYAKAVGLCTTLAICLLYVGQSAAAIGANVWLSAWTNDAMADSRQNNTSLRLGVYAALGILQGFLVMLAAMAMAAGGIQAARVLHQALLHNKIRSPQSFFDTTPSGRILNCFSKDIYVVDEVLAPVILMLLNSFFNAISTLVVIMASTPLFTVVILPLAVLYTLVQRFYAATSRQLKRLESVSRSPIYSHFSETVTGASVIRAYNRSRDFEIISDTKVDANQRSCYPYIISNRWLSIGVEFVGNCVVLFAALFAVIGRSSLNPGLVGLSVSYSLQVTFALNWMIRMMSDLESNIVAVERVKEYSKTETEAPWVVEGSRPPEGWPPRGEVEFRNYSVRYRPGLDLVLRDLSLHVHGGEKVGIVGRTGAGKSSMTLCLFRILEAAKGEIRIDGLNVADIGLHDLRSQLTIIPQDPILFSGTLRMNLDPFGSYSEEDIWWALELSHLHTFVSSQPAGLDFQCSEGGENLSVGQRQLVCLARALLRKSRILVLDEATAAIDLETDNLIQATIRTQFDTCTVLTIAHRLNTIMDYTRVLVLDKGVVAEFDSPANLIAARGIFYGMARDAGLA

For `C#C[C@@]1(OC(C)=O)CC[C@H]2[C@@H]3CCC4=CC(=O)CC[C@@H]4[C@H]3CC[C@@]21C`, the IC50 at Bile salt export pump was 36 µM; in series [1], above 133 µM; in [2], above 133 µM; in [3] it was above 133 µM. In [4], this compound had an AUC at 24 h of 0.494 µM·h. The concentration at 24 h in [5] is 21 nM. For the same compound, in [6], the Ratio is 0.00057.

Regarding `COc1cc2nc(N3CCN(C(=O)C4COc5ccccc5O4)CC3)nc(N)c2cc1OC.CS(=O)(=O)O` (stereo not drawn) [DOXAZOSIN MESYLATE], the half-inhibitory concentration (IC50) at Bile salt export pump was 45 µM; in series [1], above 133 µM; in series [2], above 133 µM; in series [3], 8 µM. This compound also came in with an AUC at 24 h in [7] of 1.64 µM·h. The Ratio turned out to be 0.009 in series [8] and 0.002 in series [9]. The compound further returned a Css with Homo sapiens of 68 nM.

On to `CCCCc1oc2ccc(NS(C)(=O)=O)cc2c1C(=O)c1ccc(OCCCN(CCCC)CCCC)cc1.Cl` [DRONEDARONE HYDROCHLORIDE], for which the half-inhibitory concentration (IC50) was 73.9 µM on Bile salt export pump, above 133 µM in series [1], above 133 µM in series [2] and above 133 µM in [3]. This compound also registered an AUC at 12 h in series [10] of 1.6 µM·h. For the same compound, the concentration at 12 h in [11] came to 133 nM. Besides, the Ratio in [12] stood at 0.002.

With `CC(C)(C)NC(=O)[C@H]1CC[C@H]2[C@@H]3CC[C@H]4NC(=O)C=C[C@]4(C)[C@H]3CC[C@]12C` [FINASTERIDE], the results for the IC50 in series [1], in [2] and in series [3] were above 133 µM, above 133 µM and 51 µM, respectively. The AUC at 24 h in series [13] and in series [14] was 0.993 µM·h each time. The concentration at 24 h in series [15] and in series [16] was 41 nM in each case. Moreover, the Ratio was determined as 0.00147 in [17], 0.00147 in series [18], 0.001 in [19] and 0.001 in series [20].

For the origin of these results see ChEMBL document CHEMBL4028801, “A multifactorial approach to hepatobiliary transporter assessment enables improved therapeutic compound development” (Toxicol Sci, 2013).
